The target of the assay is human TLR7 (Homo sapiens (Human), UniProt Q9NYK1). Put plainly: Reporter Gene Assay (HEK293 stably transfected with human TLR7 and NF-kB-driven luciferase reporter). It is filed as cell-based. Particulars: HEK293 cells stably transfected with human TLR7 and pNifty-Luciferase; 7 hours incubation; EC50 relative to the activity of resiquimod set to 100%. The protocol: As a control assay, normal Hek293 transfected with pNifty-Luc were used. […] Bright-Glo™ Luciferase assay buffer and substrate were supplied by Promega #E263B and #E264B (assay substrate and buffer respectively). 384 well clear-bottom plates were supplied by Greiner bio-one (#789163-G) and were custom bar-coded plates.
Sequence of human TLR7 (Q9NYK1 27-1049): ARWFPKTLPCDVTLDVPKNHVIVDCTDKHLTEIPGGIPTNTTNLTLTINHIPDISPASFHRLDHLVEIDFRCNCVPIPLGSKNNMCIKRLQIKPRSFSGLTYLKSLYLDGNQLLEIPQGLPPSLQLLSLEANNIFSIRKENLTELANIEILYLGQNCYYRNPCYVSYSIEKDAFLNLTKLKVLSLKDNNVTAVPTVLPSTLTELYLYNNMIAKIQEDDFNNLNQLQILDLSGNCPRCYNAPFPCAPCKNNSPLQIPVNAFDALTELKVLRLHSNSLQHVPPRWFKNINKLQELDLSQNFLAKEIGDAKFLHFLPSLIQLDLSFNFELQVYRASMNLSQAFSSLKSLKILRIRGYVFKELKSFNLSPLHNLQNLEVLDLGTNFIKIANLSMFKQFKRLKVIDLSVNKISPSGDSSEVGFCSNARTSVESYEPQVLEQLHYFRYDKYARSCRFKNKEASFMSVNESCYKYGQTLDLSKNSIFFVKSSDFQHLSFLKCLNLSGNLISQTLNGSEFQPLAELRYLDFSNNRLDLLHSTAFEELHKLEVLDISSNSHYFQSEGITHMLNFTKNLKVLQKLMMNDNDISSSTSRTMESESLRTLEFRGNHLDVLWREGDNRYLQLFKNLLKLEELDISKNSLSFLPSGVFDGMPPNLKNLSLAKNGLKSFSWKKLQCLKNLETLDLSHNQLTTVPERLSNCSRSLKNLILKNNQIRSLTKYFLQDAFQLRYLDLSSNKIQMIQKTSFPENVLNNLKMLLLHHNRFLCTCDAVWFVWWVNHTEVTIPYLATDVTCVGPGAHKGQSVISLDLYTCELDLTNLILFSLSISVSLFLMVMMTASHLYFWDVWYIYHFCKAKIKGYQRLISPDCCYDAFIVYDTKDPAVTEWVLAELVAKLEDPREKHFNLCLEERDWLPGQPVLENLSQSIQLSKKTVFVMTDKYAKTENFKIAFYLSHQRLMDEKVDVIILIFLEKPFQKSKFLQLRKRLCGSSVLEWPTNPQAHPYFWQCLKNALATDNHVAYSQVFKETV
Cells were plated at 25,000 cells/well in 384-well plates in a final volume of 50 μl of media. Cells were allowed to adhere to the plates after overnight (18 hours) culture at 37° C. and 5% CO2. Serially diluted experimental and positive control compounds were then dispensed to each well and incubated for 7 hours at 37° C. and 5% CO2. Cells stimulated with DMSO alone also serve as negative controls. After the incubation, 30 μl of the pre-mix assay buffer and substrate buffer were added to each well according to manufacturer's instructions. The luminescence signal was read on a CLIPR machine with an integration time of 20 seconds per plate.
In general terms: In a reporter assay the amount or activity of a reporter protein is the signal.
What is called EC50 is the concentration needed to bring the measured effect to its halfway point. A lower EC50 goes with greater potency. Compound `CCCCCNc1nc(N)nc2ccn(Cc3ccc(CC(=O)OCCO)cc3OC)c12` [Example 22, 2-hydroxyethyl 2-(4-{[2-amino-4-(pentylamino)-5H-pyrrolo[3,2-d]pyrimidin-5-yl]methyl}-3-methoxyphenyl)acetate] showed an EC50 below 0.006 µM.

For `CCCCCNc1nc(N)nc2ccn(Cc3ccc(CC(=O)OCC(=O)N4CCOCC4)cc3OC)c12` [Example 10, 2-morpholino-2-oxoethyl 2-(4-((2-amino-4-(pentylamino)-5H-pyrrolo[3,2-d]pyrimidin-5-yl)methyl)-3-methoxyphenyl)acetate], the response was half-maximal at 0.006 µM (EC50). The same measure for `CCCCCNc1nc(N)nc2ccn(Cc3cc(CCC(=O)OCC(=O)N4CCOCC4)ccc3OC)c12` [Example 17, 2-(morpholin-4-yl)-2-oxoethyl 3-(3-{[2-amino-4-(pentylamino)-5H-pyrrolo[3,2-d]pyrimidin-5-yl]methyl}-4-methoxyphenyl)propanoate]: 0.05 µM; for `CCCCCNc1nc(N)nc2ccn(Cc3cc(OCC(=O)OCCN4CCOCC4)ccc3OC)c12` [Example 28, 2-(morpholin-4-yl)ethyl 2-(3-{[2-amino-4-(pentylamino)-5H-pyrrolo[3,2-d]pyrimidin-5-yl]methyl}-4-methoxyphenoxy)acetate]: 0.4 µM. As for `CCCCCNc1nc(N)nc2ccn(Cc3cc(/C=C/C(=O)OCC(=O)N4CCOCC4)ccc3OC)c12` [Example 16, 2-(morpholin-4-yl)-2-oxoethyl (2E)-3-(3-{[2-amino-4-(pentylamino)-5H-pyrrolo[3,2-d]pyrimidin-5-yl]methyl}-4-methoxyphenyl)prop-2-enoate], the EC50 was below 0.005 µM.

`CCCCCNc1nc(N)nc2ccn(Cc3cc(OCC(=O)OCC(=O)N4CCOCC4)ccc3OC)c12` [Example 8, 2-morpholino-2-oxoethyl 2-(3-((2-amino-4-(pentylamino)-5H-pyrrolo[3,2-d]pyrimidin-5-yl)methyl)-4-methoxyphenoxy)acetate]: a half-maximal response (EC50) required 0.04 µM. The result for `CCCCCNc1nc(N)nc2ccn(Cc3cc(CCC(=O)OCC)ccc3OC)c12` [Example 6, ethyl 3-(3-((2-amino-4-(pentylamino)-5H-pyrrolo[3,2-d]pyrimidin-5-yl)methyl)-4-methoxyphenyl)propanoate] reads 0.03 µM; that for `CCCCCNc1nc(N)nc2ccn(Cc3ccc(CC(=O)OCC(=O)N(C)C)cc3OC)c12` [Example 20, 2-(dimethylamino)-2-oxoethyl 2-(4-((2-amino-4-(pentylamino)-5H-pyrrolo[3,2-d]pyrimidin-5-yl)methyl)-3-methoxyphenyl)acetate], 0.08 µM; that for `CCCCCNc1nc(N)nc2ccn(Cc3ccc(CC(=O)OCCCCN(C)C)cc3OC)c12` [Example 23, 4-(dimethylamino)butyl 2-(4-{[2-amino-4-(pentylamino)-5H-pyrrolo[3,2-d]pyrimidin-5-yl]methyl}-3-methoxyphenyl)acetate], 0.007 µM. The same measure for `CCCCCNc1nc(N)nc2ccn(Cc3cc(N)ccc3OC)c12` [Example 34, 5-(5-amino-2-methoxybenzyl)-N4-pentyl-5H-pyrrolo[3,2-d]pyrimidine-2,4-diamine]: 0.001 µM.

The values are drawn from US10407431B2, “Compounds and compositions as toll-like receptor 7 agonists” (NOVARTIS AG, priority 2014, dated 2019).
